Experimental data reported in paper PMC10660337, “Mutate and Conjugate: A Method to Enable Rapid In-Cell Target Validation” (ACS Chemical Biology, 2023).
Several values for one entry are separate records, joined by “and”; a condition that tells them apart may be missing. Identical values can stand only once.

Tests used:
[1] = biological target: T1, BRD4(1)^L94C (Homo sapiens, UniProt O60885, L94C); test: Protein LCMS labeling assay 1; type: binding
T1 construct: Characterization of His6-BRD4(1)L94C; made in house; host or cells: E. coli BL21 (DE3)
How it was run: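 Compound (50 µM, 0.5% DMSO) incubated with 10 µM protein in 25 mM HEPES-based buffer at 37 °C with shaking, sampled at 0, 1 and 4 h. Intact-protein LCMS, deconvoluted spectra; % labeling = labeled peak intensity ×100 / (unlabeled + labeled intensities). Selectivity checked against BRD4(1)^WT under identical conditions.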

[2] = system: T2, BRD4(1)^L94C transiently expressed in HEK293T cells; test: In-cell labeling by clickable probes, in-gel fluorescence; type: cell-based, human
T2 construct: the L94C mutation in the first bromodomain of BRD4 [BRD4(1)]; StrepII; expressed in transfected cells; host or cells: HEK293T
Description: To evaluate proteome-wide selectivity of the clickable probes, HEK293T cells transiently expressing BRD4(1)^L94C or BRD4(1)^WT were incubated with 10 μM of probes 28–30 and 42 for 1 h before the cells were lysed and the CuAAC reaction with TAMRA-PEG3-azide was conducted (Figure 7A). […]
(§1) reaction mix was taken and 8 µL of Lamelli buffer added, and the samples denatured by heating at 95 °C for 10 min. Samples were separated by gel electrophoresis on NuPAGE™ 4–12%, Bis-Tris precast polyacrylamide gels (Thermofisher). Following electrophoresis, gels were stained for 15 min with InstantBlueTM Coomasie® stain (Abcam), destained, and imaged using Bio-rad molecular imager.
(§2) Bio-rad Image Lab 6.1 was used to process the data.
(§3) In-cell target engagement
(§4) In-cell labeling by clickable probes
(§5) Transfected HEK293T cells at ~90% confluency were incubated for 1 h with a DMSO control (0.5% DMSO final concentration) or a click probe (10 µM, 0.5% DMSO final concentration) diluted in Opti- […]
Cells were then harvested and lysed using the previously described protocol above. The resulting cell lysates were diluted to 2 mg/mL using the previously described protocol above.
Cell lysates (50 µL) were then incubated with TAMRA-PEG3-Azide (200 µM), TCEP·HCl (2 mM), TBTA (200 µM), and CuSO4 (2 mM), for 1 h at rt in the dark. Samples were then prepared and separated by gel electrophoresis using the previously described protocol above.
Gels were imaged for fluorescence using Bio-rad molecular imager and then stained for 15 min with InstantBlueTM Coomasie® stain (Abcam), destained, and imaged using Bio-rad molecular imager.
Typically, the very bottom of the gel was removed prior to imaging due to residual, unreacted, TAMRA-PEG3-Azide, which would cause oversaturation and poor image quality. […]
MEM media. Cells were then harvested and lysed using the previously described protocol above. […]

[3] = system: BRD4(1,2)^L94C transiently expressed in HEK293T cells; test: In-cell labeling of tandem bromodomain; type: cell-based, human
Description: as §1, §2, §3, §4, §5
(§6) Cells were then harvested and lysed using the previously described protocol above. The resulting cell lysates were diluted to 2 mg/mL using the previously described protocol above. […]
(§7) Gels were imaged for fluorescence using Bio-rad molecular imager and then stained for 15 min with InstantBlueTM Coomasie® stain (Abcam), destained, and imaged using Bio-rad molecular imager. […]
(§8) Transfected HEK293T cells at ~90% confluency were incubated for 30 min with a DMSO control or varying concentrations of OXFBD04 diluted in Opti-MEM media. […] Cells were then harvested, processed, and analysed using the previously described protocol above. […]

[4] = biological target: BRD4(1,2)^WT transiently expressed in HEK293T cells (Homo sapiens, UniProt O60885); test: In-cell labeling of tandem bromodomain; type: cell-based
Description: as §1, §2, §3, §4, §5, §6, §7, §8

[5] = 50 μM compound, 10 µM protein, 37 °C, mean of three ± s.e.m., ND = not detectable

SMILES	Labeled Protein (%) L94C 1 h [1, 5]	Second labeling event, share of total labeled protein ([1]; labeling assay 1, 50 μM)	In-cell BRD4(1)^L94C engagement (fluorescent band ∼49 kDa) ([2]; 10 μM probe, 1 h)	Labeled Protein (%) L94C 4 h ([1]; 50 μM compound, 10 µM protein, 37 °C, 4 h, mean of three ± s.e.m., ND = not detectable)	Dose dependence of in-cell BRD4(1)^L94C labeling ([2]; 1 to 10 μM)	Time dependence of in-cell BRD4(1)^L94C labeling ([2]; time course 0.5–4 h)	In-cell labeling of BRD4(1,2)^L94C (fluorescent band ∼80 kDa) [3]	In-cell covalent engagement with BRD4(1,2)^WT [4]
C#CCOc1ccc(-c2c(C)noc2NC(=O)C=C)cc1 [Compound 30]	96 ± 0.2%	3%	highest level of BRD4(1)^L94C engagement	–	–	–	–	–
C#CCOc1cc(NC(=O)C=C)ccc1N1CCCC1=O [Compound 42]	37% and 37 ± 1.2%	–	–	82% and 82 ± 1.1%	dose dependent	time-dependent	selectively label	no covalent engagement
